Experimental findings from patent publication US12139492B2 (Endotarget Inc., priority 2021, dated 2024) are described below.

One experiment concerns Mino cells. As to the kind of experiment: Antiproliferative effect, MTS cell viability assay, Mino cells. The note with it: Homo sapiens, MINO, Mino mantle cell lymphoma cells; read-out: IC50 (anti-proliferation) Mino cells. The class given is cell-based. The essentials:
(§1)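 Tested at six concentrations (0 to 10 μM in tenfold steps), 72 h; viability by MTS, A490.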

A further experiment concerns JeKo-1 cells. As to the kind of experiment: Antiproliferative effect, MTS cell viability assay, JeKo-1 cells. The class given is cell-based. The note with it: Homo sapiens; JeKo-1 mantle cell lymphoma cells; read-out: IC50 (anti-proliferation) JeKO-1 cells. The essentials:
as §1
On the technique in general: Tetrazolium dyes change colour on reduction, which living cells bring about.

The target in another experiment is BTK (Homo sapiens, UniProt Q06187). As to the kind of experiment: Degradation of BTK protein in Namalwa cells (Western blot; DC50, Dmax). As to conditions: for DC50: cell line not given.
Chain of BTK (Q06187 whole entry): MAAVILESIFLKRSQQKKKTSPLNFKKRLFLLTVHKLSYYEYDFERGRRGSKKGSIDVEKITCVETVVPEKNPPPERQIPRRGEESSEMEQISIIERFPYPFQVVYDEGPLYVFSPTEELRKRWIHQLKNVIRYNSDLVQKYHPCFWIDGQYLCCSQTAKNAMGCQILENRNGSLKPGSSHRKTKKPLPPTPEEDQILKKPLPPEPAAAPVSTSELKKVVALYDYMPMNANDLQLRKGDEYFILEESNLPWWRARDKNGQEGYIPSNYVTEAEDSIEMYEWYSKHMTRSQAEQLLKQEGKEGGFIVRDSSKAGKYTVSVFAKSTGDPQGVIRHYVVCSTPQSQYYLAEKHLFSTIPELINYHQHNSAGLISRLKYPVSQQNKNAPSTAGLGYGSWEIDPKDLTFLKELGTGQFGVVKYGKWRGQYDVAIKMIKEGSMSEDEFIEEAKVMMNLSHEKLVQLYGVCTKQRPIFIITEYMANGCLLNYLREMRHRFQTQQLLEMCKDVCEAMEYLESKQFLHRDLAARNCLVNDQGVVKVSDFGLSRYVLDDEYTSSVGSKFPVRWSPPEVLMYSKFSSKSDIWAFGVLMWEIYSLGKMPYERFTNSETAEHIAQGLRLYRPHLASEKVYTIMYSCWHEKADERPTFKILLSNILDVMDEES
Setting [1] is: read-out: DC50 (BTK degradation), concentration giving 50% reduction of BTK expression level.
[2] abbreviates: read-out: Dmax (BTK degradation).

The term DC50 denotes the concentration giving 50% degradation. The term Dmax denotes the largest share of the target that was removed.

Read-outs that look alike come from different tables or passages of the source.

On to `Nc1ncnc2c1c(-c1ccc(Oc3ccccc3)cc1)nn2C1CCN(C[C@@H]2CCN(CC3CCN(c4ccc5c(c4)CN(C4CCC(=O)NC4=O)C5=O)CC3)C2)CC1` (stereo partly drawn) [Compound 446b, 3-(5-(4-(((S)-3-((4-(4-amino-3-(4-phenoxyphenyl)-1H-pyrazolo[3,4-d]pyrimidin-1-yl)piperidin-1-yl)methyl)pyrrolidin-1-yl)methyl)piperidin-1-yl)-1-oxoisoindolin-2-yl)piperidine-2,6-dione], for which the IC50 in the experiment on Mino cells was below 1000 nM; in the experiment on JeKo-1 cells, 1000 to 10000 nM. Besides, the DC50 at BTK (setting [1]) is 10 to 50 nM. The Dmax on BTK (setting [2]) is above 90%.
As for `NC(=O)c1c(-c2ccc(Oc3ccccc3)cc2)nn2c1NCCC2C1CCN(CC2CCN(C(=O)N3CCN(c4ccc5c(c4)CN(C4CCC(=O)NC4=O)C5=O)CC3)CC2)CC1` (centres unmarked) [Compound 358, 7-(1-((1-(4-(2-(2,6-dioxopiperidin-3-yl)-1-oxoisoindolin-5-yl)piperazine-1-carbonyl)piperidin-4-yl)methyl)piperidin-4-yl)-2-(4-phenoxyphenyl)-4,5,6,7-tetrahydropyrazolo[1,5-a]pyrimidine-3-carboxamide], the IC50 in the experiment with Mino cells and in the experiment on JeKo-1 cells was above 10000 nM each time. In addition, the Dmax at BTK is above 50%. The DC50 at BTK (BTK degradation) was above 50 nM.
`Nc1ncnc2c1c(-c1ccc(Oc3ccccc3)cc1)nn2C1CCN(CCCN2CCC(CC3CCN(c4ccc(NC5CCC(=O)NC5=O)cc4)CC3)CC2)CC1` (centres unmarked) [Compound 561, 3-((4-(4-((1-(3-(4-(4-amino-3-(4-phenoxyphenyl)-1H-pyrazolo[3,4-d]pyrimidin-1-yl)piperidin-1-yl)propyl)piperidin-4-yl)methyl)piperidin-1-yl)phenyl)amino)piperidine-2,6-dione]: the IC50 with Mino cells and with JeKo-1 cells was below 1000 nM each time. In addition, the DC50 on BTK (setting [1]) was 10 to 50 nM. In addition, the greatest degradation seen (Dmax) on BTK (setting [2]) was above 90%.
As for `NC(=O)c1c(-c2ccc(Oc3ccccc3)cc2)nn2c1NCCC2C1CCN(CC2CCN(CCC3CCN(c4ccc5c(c4)CN(C4CCC(=O)NC4=O)C5=O)CC3)CC2)CC1` (centres unmarked) [Compound 318, 7-(1-((1-(2-(1-(2-(2,6-dioxopiperidin-3-yl)-1-oxoisoindolin-5-yl)piperidin-4-yl)ethyl)piperidin-4-yl)methyl)piperidin-4-yl)-2-(4-phenoxyphenyl)-4,5,6,7-tetrahydropyrazolo[1,5-a]pyrimidine-3-carboxamide], the IC50 in the experiment with Mino cells is 1000 to 10000 nM; in the experiment on JeKo-1 cells it was above 10000 nM. At BTK, this molecule showed a Dmax above 75%. Moreover, at BTK (BTK degradation), the DC50 was above 50 nM.
For the molecule `NC(=O)c1c(-c2ccc(Oc3ccccc3)cc2)nn2c1NCCC2C1CCN(C(=O)N2CCN(CC3CCN(c4ccc5c(c4)C(=O)N(C4CCC(=O)NC4=O)C5=O)CC3)CC2)CC1` (centres unmarked) [Compound 273, 7-(1-(4-((1-(2-(2,6-dioxopiperidin-3-yl)-1,3-dioxoisoindolin-5-yl)piperidin-4-yl)methyl)piperazine-1-carbonyl)piperidin-4-yl)-2-(4-phenoxyphenyl)-4,5,6,7-tetrahydropyrazolo[1,5-a]pyrimidine-3-carboxamide], the IC50 in the experiment on Mino cells was below 1000 nM; in the experiment with JeKo-1 cells, 1000 to 10000 nM. In addition, the Dmax at BTK is above 90%. The same molecule yielded a DC50 on BTK (BTK degradation) of 10 to 50 nM.
Turning to `NC(=O)c1c(-c2ccc(Oc3ccccc3)cc2)nn2c1NCCC2C1CCN(C(=O)N2CCN(CCC3CCN(c4ccc5c(c4)CN(C4CCC(=O)NC4=O)C5=O)CC3)CC2)CC1` (centres unmarked) [Compound 284, 7-(1-(4-(2-(1-(2-(2,6-dioxopiperidin-3-yl)-1-oxoisoindolin-5-yl)piperidin-4-yl)ethyl)piperazine-1-carbonyl)piperidin-4-yl)-2-(4-phenoxyphenyl)-4,5,6,7-tetrahydropyrazolo[1,5-a]pyrimidine-3-carboxamide], the IC50 in the experiment with Mino cells and with JeKo-1 cells was 1000 to 10000 nM throughout. The same molecule showed a Dmax at BTK above 75%. Also, on BTK (BTK degradation), the DC50 was 10 to 50 nM.
On to `Nc1ncnc2c1c(-c1ccc(Oc3ccccc3)cc1)nn2C1CCN(CC2CCN(CC3CCN(CC4CN(c5ccc6c(c5)C(=O)N(C5CCC(=O)NC5=O)C6=O)C4)CC3)CC2)CC1` (centres unmarked) [Compound 431, 5-(3-((4-((4-((4-(4-amino-3-(4-phenoxyphenyl)-1H-pyrazolo(3,4-d)pyrimidin-1-yl)piperidin-1-yl)methyl)piperidin-1-yl)methyl)piperidin-1-yl)methyl)azetidin-1-yl)-2-(2,6-dioxopiperidin-3-yl)isoindoline-1,3-dione], for which the IC50 in the experiment on Mino cells and in the experiment on JeKo-1 cells was below 1000 nM in each case. The “degradation of BTK protein” value on BTK (Namalwa B lymphocyte cells, various concentrations, 24 hours, Western blot) is on record as “dose-dependent degradation”. On BTK (setting [1]), the half-maximal degradation concentration (DC50) is above 50 nM. The maximal degradation (Dmax) at BTK (setting [2]) is above 90%.
As to `Nc1ncnc2c1c(-c1ccc(Oc3ccccc3)cc1)nn2C1CCN(C2CCN(C(=O)N3CCN(CCN4CCC(c5ccc6c(c5)CN(C5CCC(=O)NC5=O)C6=O)CC4)CC3)CC2)CC1` (centres unmarked) [Compound 250], the IC50 in the experiment with Mino cells and in the experiment on JeKo-1 cells was 1000 to 10000 nM in each case. Further, the maximal degradation (Dmax) on BTK was above 90%. On BTK (BTK degradation), the 50% degradation concentration (DC50) was 10 to 50 nM.
As to `Nc1ncnc2c1c(-c1ccc(Oc3ccccc3)cc1)nn2C1CCN(C2CCN(CC3CCN(c4ccc(N5CCC(=O)NC5=O)cc4)CC3)C2)CC1` (centres unmarked) [Compound 573, 1-(4-(4-((3-(4-(4-amino-3-(4-phenoxyphenyl)-1H-pyrazolo[3,4-d]pyrimidin-1-yl)piperidin-1-yl)pyrrolidin-1-yl)methyl)piperidin-1-yl)phenyl)dihydropyrimidine-2,4(1H,3H)-dione], the values for the IC50 in the experiment on Mino cells and in the experiment with JeKo-1 cells were 1000 to 10000 nM and below 1000 nM, respectively. Also, the DC50 on BTK (setting [1]) was below 10 nM. The Dmax at BTK (setting [2]) was above 75%.
The like results for `Nc1ncnc2c1c(-c1ccc(Oc3ccccc3)cc1)nn2C1CCN(CCCCC#Cc2ccc(N3CCC(=O)NC3=O)cc2)CC1` [Compound 539, 1-(4-(6-(4-(4-amino-3-(4-phenoxyphenyl)-1H-pyrazolo[3,4-d]pyrimidin-1-yl)piperidin-1-yl)hex-1-yn-1-yl)phenyl)dihydropyrimidine-2,4(1H,3H)-dione] were, in that order, above 10000 nM, above 10000 nM, above 50 nM and above 50%.
Turning to `Nc1ncnc2c1c(-c1ccc(Oc3ccccc3)cc1)nn2C1CCN(CC2CCN(CC3CCN(c4ccc5c(c4)oc(=O)n5C4CCC(=O)NC4=O)CC3)CC2)CC1` (centres unmarked) [Compound 544, 3-(6-(4-((4-((4-(4-amino-3-(4-phenoxyphenyl)-1H-pyrazolo[3,4-d]pyrimidin-1-yl)piperidin-1-yl)methyl)piperidin-1-yl)methyl)piperidin-1-yl)-2-oxobenzo[d]oxazol-3(2H)-yl)piperidine-2,6-dione], the IC50 in the experiment with Mino cells and in the experiment on JeKo-1 cells was 1000 to 10000 nM in each case. Besides, at BTK (setting [1]), the half-maximal degradation concentration (DC50) fell in the range of 10 to 50 nM. For the same molecule, the greatest degradation seen (Dmax) at BTK (setting [2]) was above 90%.
Take `Nc1ncnc2c1c(-c1ccc(Oc3ccccc3)cc1)nn2C1CCN(CCN2CCC(CN3CCN(c4ccc5c(c4)CN(C4CCC(=O)NC4=O)C5=O)CC3)C2)CC1` (centres unmarked) [Compound 456, 3-(5-(4-((1-(2-(4-(4-amino-3-(4-phenoxyphenyl)-1H-pyrazolo[3,4-d]pyrimidin-1-yl)piperidin-1-yl)ethyl)pyrrolidin-3-yl)methyl)piperazin-1-yl)-1-oxoisoindolin-2-yl)piperidine-2,6-dione]: the IC50 in the experiment with Mino cells and in the experiment on JeKo-1 cells was 1000 to 10000 nM throughout. The DC50 on BTK (setting [1]) was in the range of 10 to 50 nM. The greatest degradation seen (Dmax) on BTK (setting [2]) is above 75%.
In the case of `NC1=NC=NC2C1C(c1ccc(Oc3ccccc3)cc1)=NN2C1CCN(C(=O)N2CCN(C3CN(c4ccc5c(c4)C(=O)N(C4CCC(=O)NC4=O)C5=O)C3)CC2)CC1` (centres unmarked) [Compound 503, 5-(3-(4-(4-(4-amino-3-(4-phenoxyphenyl)-3a,7a-dihydro-1H-pyrazolo[3,4-d]pyrimidin-1-yl)piperidine-1-carbonyl)piperazin-1-yl)azetidin-1-yl)-2-(2,6-dioxopiperidin-3-yl)isoindoline-1,3-dione], the IC50 in the experiment on Mino cells and in the experiment with JeKo-1 cells was below 1000 nM in each case. The 50% degradation concentration (DC50) at BTK (setting [1]) is 10 to 50 nM. Also, the maximal degradation (Dmax) at BTK (setting [2]) is above 75%.
Turning to `Nc1ncnc2c1c(-c1ccc(Oc3ccccc3)cc1)nn2C1CCN(CC2CCN(CCC3CCN(c4ccc5c(c4)CN(C4CCC(=O)NC4=O)C5=O)CC3)CC2)CC1` (centres unmarked) [Compound 202, 3-(5-(4-(2-(4-((4-(4-amino-3-(4-phenoxyphenyl)-1H-pyrazolo[3,4-d]pyrimidin-1-yl)piperidin-1-yl)methyl)piperidin-1-yl)ethyl)piperidin-1-yl)-1-oxoisoindolin-2-yl)piperidine-2,6-dione], the results for the IC50 with Mino cells and with JeKo-1 cells were 1000 to 10000 nM and below 1000 nM, respectively. Besides, the Dmax on BTK was above 90%. This molecule also registered a 50% degradation concentration (DC50) at BTK (BTK degradation) of 10 to 50 nM.
In the case of `NC1=NC=NC2C1C(c1ccc(Oc3ccccc3)cc1)=NN2C1CCN(C(=O)N2CC(C3CN(c4ccc5c(c4)C(=O)N(C4CCC(=O)NC4=O)C5=O)C3)C2)CC1` (centres unmarked) [Compound 493, 5-(1′-(4-(4-amino-3-(4-phenoxyphenyl)-3a,7a-dihydro-1H-pyrazolo[3,4-d]pyrimidin-1-yl)piperidine-1-carbonyl)-[3,3′-biazetidin]-1-yl)-2-(2,6-dioxopiperidin-3-yl)isoindoline-1,3-dione], the IC50 in the experiment with Mino cells and with JeKo-1 cells was below 1000 nM each time. Besides, the DC50 at BTK (setting [1]) fell in the range of 10 to 50 nM. The Dmax on BTK (setting [2]) was above 90%.
Turning to `NC(=O)c1c(-c2ccc(Oc3ccccc3)cc2)nn2c1NCCC2C1CCN(CC2CCN(CC3CCN(c4ccc5c(c4)C(=O)N(C4CCC(=O)NC4=O)C5=O)CC3)CC2)CC1` (centres unmarked) [Compound 313, 7-(1-((1-((1-(2-(2,6-dioxopiperidin-3-yl)-1,3-dioxoisoindolin-5-yl)piperidin-4-yl)methyl)piperidin-4-yl)methyl)piperidin-4-yl)-2-(4-phenoxyphenyl)-4,5,6,7-tetrahydropyrazolo[1,5-a]pyrimidine-3-carboxamide], the IC50 in the experiment with Mino cells and in the experiment with JeKo-1 cells was 1000 to 10000 nM in each case. Also, the Dmax on BTK is above 90%. For the same molecule, the DC50 on BTK (BTK degradation) was in the range of 10 to 50 nM.
